EP0369083A1, “Cardioprotective tocopherol analogs” (MERRELL DOW PHARMACEUTICALS INC., priority 1988, dated 1990)
Where “and” joins values, the source holds several entries; their conditions need not be identical. Equal entries are not always repeated. One block for each compound: values may come before it.

Tests used:
[1] = Free radical scavenging: inhibition of autoxidation of 1-epinephrine (Misra and Fridovich assay); type: biochemical; conditions: 1-epinephrine 1 x 10⁻⁴M, EDTA 1 x 10⁻⁴M, 30°C, absorbance at 480 nm; read-out: 50% inhibition of the autoxidation rate (ID₅₀)
Description: 2-(3,4-dihydro-6-hydroxy-2,5,7,8-tetramethyl-2H-1-benzopyran-2-yl)ethyl-N,N,N-trimethylammonium bromide, described in Example 1, was evaluated for its ability to reduce superoxide radicals in an assay described by H.P. Misra and J. Fridovich, 1972, J. Biol. Chem. 247, 3170-5. In this assay, the rate of autoxidation of 1-epinephrine (1 x 10⁻⁴M) in the presence of EDTA (1 x 10⁻⁴M) at 30°C is followed spectrophotometrically following the increase of absorbance at 480 mn. […] For comparison, 3,4-dihydro-6-hydroxy-2,5,7,8-tetramethyl-2H-1-benzopyran -2-carboxylic acid (CAS 53188-07-1) gave ID₅₀ = 105 ± 8 µM and d,1-penicillamine (CAS 52-67-5) ID₅₀ = 73 µM in parallel experiments. Misra and Fridovich report that bovine superoxide dismutase gave 50% inhibition at […].

[2] = system: ligation-induced infarcted and reperfused rats; assay: Cardioprotective effects: coronary ligation 60 min and reperfusion 30 min, infarcted area versus area at risk; type: in vivo
Description: 2-(3,4-Dihydro-2,5,7,8-tetramethyl-6-methyl-carbonyloxy-2H-1-benzopyran-2-yl) ethyl-N,N,N-trimethyl-ammonium bromide was evaluated in ligation-induced infarcted and reperfused rats as follows. One of two groups of rats was infused intravenously with a solution of test compound in saline at a rate of 2.3 ml/h (10 mg/kg/h). The control group was infused with saline at the same rate. After 10 min of drug infusion, coronary arteries were ligated surgically for 60 min, ligation was loosened to allow reperfusion for 30 min. The ligation was retied and a dye (Evans Blue) was injected. The animals were sacrificed and the heart ventricles were removed and weighed. The unstained tissue was dissected and weighed; this represents the "area at risk", i.e. the area that was deprived of blood supply by ligation. To determine the infarcted area, the tissue was incubated with 2,3,5-triphenyltetrazolium chloride. Infarcted tissue became light colored and could be dissected and weighed. Thus, for each rat that survived the ligation a measurement of "area at risk" and of "infarcted area" was obtained and the ratio was calculated as given in Tables II and III.

[3] = Affinity for cardiac tissue: radioactivity in heart and blood after intravenous 14C-labelled compound; type: in vivo; parameters: ng equiv/g heart: unit not given here; conditions: rats, 0.91 mg base/kg intravenous
Description: Following the procedure described in Example 1, but using ¹⁴C-methyl p-toluenesulfonate in place of "cold material", ¹⁴C-labelled 2-(3,4-dihydro-2,5,7,8-tetramethyl-6-methylcarbonyloxy-2H-1-benzopyranan-2-yl)ethyl-N,N,N-tri-¹⁴C-methylammonium p-toluenesulfonate was synthesized. The preparation was diluted with "cold material" to 11.74 µCi/mg base.
24 rats were given 0.91 mg base/kg by intravenous route (by canula into the jugular vein). The animals were sacrificed in groups of 3 at the time periods indicated in Table I. Immediately before sacrifice a 0.5 ml blood sample was taken from an indwelling catheter in the carotid artery. The hearts were removed, blotted and weighed. The samples of tissue and blood were solubiized with Luma Solve (a quaternary ammonium hydroxide preparation) and radioactivity was determined in a scintillation counter.

[4] = treated group, 10 mg/kg/h intravenous infusion, individual rats No. 1-10, 10 mg/kg

SMILES: Cc1c(C)c2c(c(C)c1O)CCC(C)(C(=O)O)O2 (stereo not drawn) [3,4-dihydro-6-hydroxy-2,5,7,8-tetramethyl-2H-1-benzopyran-2-carboxylic acid]
IC50 [1]: 105 ± 8 µM

SMILES: Cc1c(C)c2c(c(C)c1O)CCC(C)(CC[N+](C)(C)C)O2 (stereo not drawn) [Example 1, 2-(3,4-Dihydro-6-hydroxy-2,5,7,8-tetramethyl-2H-1-benzo-pyran-2-yl)ethyl-N,N,N-trimethylammonium bromide]
IC50 [1]: 138 ± 14 µM

SMILES: CC(=O)Oc1c(C)c(C)c2c(c1C)CCC(C)(CC[N+](C)(C)C)O2.[Br-] (stereo not drawn) [Example 2, 2-(3,4-Dihydro-2,5,7,8-tetramethyl-6-methylcarbonyloxy-2H-1-benzopyran-2-yl)ethyl-N,N,N-trimethylammonium bromide]
reduction of infarction ([2]; treated (10 mg/kg/h) versus saline control, statistically significant (ANOVA) at p = 0.02): 42.7%
Ratio % (infarcted tissue / tissue at risk), average ([2]; treated group, 10 mg/kg/h intravenous infusion, average of 10 rats, control group 83.31, 10 mg/kg): 47.8% and 47.75%
Infarcted tissue,mg [2, 4]: 23 mg and 27 mg and 299 mg and 39 mg and 33 mg and 247 mg and 193 mg and 134 mg and 123 mg and 157 mg
Ratio % (infarcted tissue / tissue at risk) [2, 4]: 45.2% and 9.4% and 97.5% and 15.5% and 18.9% and 64.8% and 62.1% and 64.5% and 31.2% and 68.4%

Ratio heart/blood ([3]; 5 min after administration): 3.05 ± 1.46
ng equiv/g heart ([3]; 5 min after administration): 1.591 ± 0.22
ng equiv/ml blood ([3]; 5 min after administration): 0.434 ± 0.351 ng equiv/ml blood
Ratio heart/blood ([3]; 15 min after administration): 6.90 ± 8.34
ng equiv/g heart ([3]; 15 min after administration): 1.728 ± 0.422
ng equiv/ml blood ([3]; 15 min after administration): 0.590 ± 0.295 ng equiv/ml blood
Ratio heart/blood ([3]; 30 min after administration): 17.33 ± 5.42
ng equiv/g heart ([3]; 30 min after administration): 1.905 ± 0.278
ng equiv/ml blood ([3]; 30 min after administration): 0.124 ± 0.032 ng equiv/ml blood
Ratio heart/blood ([3]; 1 hour after administration): 20.09 ± 2.54
ng equiv/g heart ([3]; 1 hour after administration): 2.092 ± 0.406
ng equiv/ml blood ([3]; 1 hour after administration): 0.096 ± 0.008 ng equiv/ml blood
Ratio heart/blood ([3]; 2 hours after administration): 21.90 ± 3.56
ng equiv/g heart ([3]; 2 hours after administration): 1.395 ± 0.042
ng equiv/ml blood ([3]; 2 hours after administration): 0.086 ± 0.041 ng equiv/ml blood
ng equiv/g heart ([3]; 4 hours after administration): 1.253 ± 0.248
ng equiv/ml blood ([3]; 4 hours after administration): 0.054 ± 0.013 ng equiv/ml blood
Ratio heart/blood ([3]; 4 hours after administration (maximum), listed as 2-(3,4-dihydro-2,5,7,8-tetramethyl-6-methylcarbonyloxy-2H-1-benzopyranan-2-yl)et, p-toluenesulfonate): 27.15 and 27.15 ± 4.30
Ratio heart/blood ([3]; 6 hours after administration): 18.62 ± 2.77
ng equiv/g heart ([3]; 6 hours after administration): 0.863 ± 0.067
ng equiv/ml blood ([3]; 6 hours after administration): 0.048 ± 0.007 ng equiv/ml blood
Ratio heart/blood ([3]; 8 hours after administration): 15.12 ± 2.69
ng equiv/g heart ([3]; 8 hours after administration): 0.652 ± 0.116
ng equiv/ml blood ([3]; 8 hours after administration): 0.048 ± 0.012 ng equiv/ml blood
concentration of drug in heart tissue ([3]; after 8 h): 0.65 µg equiv/g
affinity for heart tissue ([3]; conclusion in words): marked affinity for heart tissue
SMILES: CC(=O)Oc1c(C)c(C)c2c(c1C)CCC(C)(CC[N+](C)(C)C)O2.Cc1ccc(S(=O)(=O)[O-])cc1 (stereo not drawn) [Example 9, 2-(3,4-Dihydro-2,5,7,8-tetramethyl-6-methylcarbonyloxy-2H-1-benzopyran-2-yl)ethyl-N,N,N-trimethylammonium p-toluenesulfonate]

SMILES: CC(C)(S)[C@@H](N)C(=O)O [d,1-penicillamine]
IC50 [1]: 73 µM
